Data: ChEMBL document CHEMBL3044558, “Structure-activity relationship development of dihaloaryl triazole compounds as insecticides and acaricides. 1. Phenyl thiophen-2-yl triazoles” (2007)
Calls of active or inactive are those of the source. The calls are words filed in the database; no cut-off is given here.

Assays:
Bemisia tabaci [1] = assay: Insecticidal activity against Bemisia tabaci (sweet potato whitefly) second-instar larvae infested five weeks old cotton plants followed by compound 250 ppm compound spraying after insect oviposit assessed as insect mortality measured 13 days post compound treatment under green house conditions; type: functional
Trichoplusia ni [2] = assay: Insecticidal activity against Trichoplusia ni (cabbage looper) second-instar larvae infested on 400 ppm compound pre-treated cabbage leaf disk assessed as insect mortality measured 5 days post compound treatment under green house conditions; type: functional; conditions: at 400 ppm
Spodoptera exigua = assay: Insecticidal activity against Spodoptera exigua second-instar larvae feeded on 400 ppm compound treated lepidopteran diet assessed as insect mortality measured 5 days post compound treatment under green house conditions; type: functional; conditions: at 400 ppm
Heliothis virescens [3] = assay: Insecticidal activity against Heliothis virescens (tobacco budworm) second-instar larvae infested on 400 ppm compound pre-treated cotton cotyledon disk assessed as insect mortality measured 5 days post compound treatment under green house conditions; type: functional
Tetranychus urticae [4] = tested on: Tetranychus urticae
Aphis gossypii [5] = tested on: Aphis gossypii
Tetranychus urticae [6] = assay: Insecticidal activity against female Tetranychus urticae (two-spotted spider mite) infested cotton leaf disks followed by 2.5 ppm compound spraying after oviposit assessed as insect mortality measured after 6 days post compound application under green house conditions; type: functional; conditions: foliar, 144 h
Bemisia tabaci [7] = tested on: Bemisia tabaci
Heliothis virescens [8] = tested on: Heliothis virescens
Trichoplusia ni [9] = tested on: Trichoplusia ni
Aphis gossypii [10] = assay: Insecticidal activity against Aphis gossypii (cotton aphid) infested one week old Crookneck squash plants assessed as insect mortality at 50 ppm measured after 3 days post compound application under green house conditions; type: functional; conditions: 72 h

Compound	mortality (Bemisia tabaci [1]) [%]	mortality (Trichoplusia ni [2]) [%]	mortality (Spodoptera exigua) [%]	mortality (Heliothis virescens [3]) [%]	mortality (Tetranychus urticae [4])	mortality (Aphis gossypii [5])	mortality at 2.5 ppm (Tetranychus urticae [6]) [%]	mortality (Bemisia tabaci [7])	mortality (Heliothis virescens [8])	mortality (Trichoplusia ni [9])	mortality at 50 ppm (Aphis gossypii [10]) [%]
Cn1nc(-c2c(F)cccc2Cl)nc1-c1sc(-c2ccc(OC(F)(F)F)cc2)c(Cl)c1Cl	70	90	70	60	inactive	inactive	–	–	–	–	–
Cc1c(-c2nc(-c3c(F)cccc3Cl)nn2C)sc(-c2ccc(OC(F)(F)F)cc2)c1Br	–	90	90	–	–	inactive	90	inactive	inactive	–	–
Cc1cc(C2CCC(OC(=O)C(F)(F)Br)CC2)sc1-c1nc(-c2c(F)cccc2Cl)nn1C (stereo not given)	–	–	<50	–	inactive	inactive	–	–	inactive	inactive	–
Cn1nc(-c2c(F)cccc2Cl)nc1-c1ccc(-c2cccc(OC(F)(F)F)c2)s1	–	80	<50	–	inactive	inactive	–	inactive	inactive	–	–
COc1ccc(-c2csc(-c3nc(-c4c(F)cccc4F)nn3C)c2)cc1	60	80	50	–	inactive	inactive	–	–	inactive	–	–
Cc1ccc(-c2sc(-c3nc(-c4c(F)cccc4Cl)nn3C)c(Cl)c2Cl)cc1	70	–	70	50	–	inactive	90	–	–	inactive	–
Cn1nc(-c2c(F)cccc2Cl)nc1-c1sc(-c2ccc(Br)cc2)c(Cl)c1Cl	50	–	70	90	–	inactive	90	–	–	inactive	–
Cc1sc(-c2nc(-c3c(F)cccc3Cl)nn2C)c(C)c1-c1ccc(C(C)C)cc1	–	–	80	80	–	–	90	inactive	–	inactive	< 50
Cc1c(-c2nc(-c3c(F)cccc3Cl)nn2C)sc(Cl)c1-c1ccc(OC(F)(F)F)cc1	<50	–	90	–	–	inactive	90	–	inactive	inactive	–
Cc1cc(-c2cccc(OC(F)(F)F)c2)sc1-c1nc(-c2c(F)cccc2Cl)nn1C	<50	90	80	90	inactive	inactive	–	–	–	–	–
Cc1c(-c2nc(-c3c(F)cccc3Cl)nn2C)sc(Br)c1-c1ccc(OC(F)(F)F)cc1	–	–	90	–	–	inactive	50	inactive	inactive	inactive	–
Cc1c(-c2ccc(C(F)(F)F)cc2)csc1-c1nc(-c2c(F)cccc2Cl)nn1C	<50	90	60	–	–	–	60	–	inactive	–	60
Cn1nc(-c2c(F)cccc2Cl)nc1-c1sc(-c2ccc(-c3ccccc3)cc2)c(Cl)c1Cl	<50	–	50	90	–	–	80	–	–	inactive	90
CCOc1ccc(-c2c(C)sc(-c3nc(-c4c(F)cccc4Cl)nn3C)c2C)cc1	<50	–	80	70	–	–	< 50	–	–	inactive	< 50
Cc1cc(Oc2ncc(C(F)(F)F)cc2Cl)sc1-c1nc(-c2c(F)cccc2Cl)nn1C	90	–	70	90	–	–	90	–	–	inactive	90
Cc1ccc(-c2sc(-c3nc(-c4c(F)cccc4Cl)nn3C)cc2Br)cc1	<50	–	<50	–	inactive	inactive	–	–	inactive	inactive	–
Cc1c(-c2nc(-c3c(F)cccc3Cl)nn2C)sc(Br)c1-c1ccc(OC(F)(F)C(F)Br)cc1 (stereo not given)	<50	–	80	90	–	–	90	–	–	inactive	< 50
Cc1cc(C2=CCC(OC(F)(F)C(F)Br)CC2)sc1-c1nc(-c2c(F)cccc2Cl)nn1C (stereo not given)	–	–	<50	–	inactive	–	–	–	inactive	inactive	< 50

Compound	mortality (Bemisia tabaci [1]) [%]	mortality (Trichoplusia ni [2]) [%]	mortality (Spodoptera exigua) [%]	mortality (Heliothis virescens [3]) [%]	mortality (Tetranychus urticae [4])	mortality (Aphis gossypii [5])	mortality at 2.5 ppm (Tetranychus urticae [6]) [%]	mortality (Bemisia tabaci [7])	mortality (Heliothis virescens [8])	mortality (Trichoplusia ni [9])	mortality at 50 ppm (Aphis gossypii [10]) [%]
Cc1ccc(-c2cc(Cl)c(-c3nc(-c4c(F)cccc4Cl)nn3C)s2)cc1	–	–	<50	60	–	inactive	90	inactive	–	inactive	–
COCCOc1cccc(-c2cc(C)c(-c3nc(-c4c(F)cccc4Cl)nn3C)s2)c1	–	70	80	–	–	–	< 50	inactive	inactive	–	< 50
Cn1nc(-c2c(F)cccc2Cl)nc1-c1sc(-c2ccc(C(C)(C)C)cc2)c(Cl)c1Cl	<50	–	50	<50	–	–	60	–	–	inactive	80
Cc1c(-c2ccc(O)cc2)csc1-c1nc(-c2c(F)cccc2Cl)nn1C	–	–	<50	<50	inactive	inactive	–	inactive	–	inactive	–
Cn1nc(-c2c(F)cccc2F)nc1-c1cc(-c2ccccc2)c(C(F)(F)F)s1	–	–	50	–	inactive	inactive	–	–	inactive	inactive	–
COc1ccc(-c2ccc(-c3nc(-c4c(F)cccc4F)nn3C)s2)cc1	–	<50	90	–	inactive	inactive	–	inactive	inactive	–	–
Cc1c(-c2ccc(OC(F)(F)C(F)Br)cc2)csc1-c1nc(-c2c(F)cccc2Cl)nn1C (stereo not given)	90	–	90	90	–	–	90	–	–	inactive	80
Cn1nc(-c2c(F)cccc2Cl)nc1-c1sc(-c2ccc(C(F)(F)F)cc2)c(Br)c1Cl	–	–	90	90	–	–	90	inactive	–	inactive	< 50
CCOc1ccc(-c2ccc(-c3nc(-c4c(F)cccc4Cl)nn3C)s2)cc1	<50	90	80	–	inactive	inactive	–	–	inactive	–	–
Cc1cc(-c2ccncc2)sc1-c1nc(-c2c(F)cccc2Cl)nn1C	–	90	70	<50	inactive	inactive	–	inactive	–	–	–
Cc1c(-c2ccc(OC(F)(F)C(F)Br)cc2)sc(-c2nc(-c3c(F)cccc3Cl)nn2C)c1C (stereo not given)	80	–	70	90	–	–	90	–	–	inactive	< 50
Cn1nc(-c2c(F)cccc2Cl)nc1-c1ccc(-c2ccc(F)cc2)s1	<50	80	<50	–	inactive	inactive	–	–	inactive	–	–
Cn1nc(-c2c(F)cccc2Cl)nc1-c1cc(-c2ccc(Cl)cc2)c(Cl)s1	–	–	50	–	inactive	inactive	–	–	inactive	–	–
Cc1cc(-c2cc(Br)cc(Br)c2)sc1-c1nc(-c2c(F)cccc2Cl)nn1C	–	–	60	<50	inactive	inactive	–	inactive	–	inactive	–
Cc1cc(C2(O)CCC(=O)CC2)sc1-c1nc(-c2c(F)cccc2Cl)nn1C	–	<50	<50	<50	inactive	inactive	–	inactive	–	–	–
CCOc1ccc(-c2cc(C)c(-c3nc(-c4c(F)cccc4Cl)nn3C)s2)cc1	<50	–	80	60	–	inactive	90	–	–	inactive	–
Cc1cc(-c2ccc(Cl)c(Cl)c2)sc1-c1nc(-c2c(F)cccc2Cl)nn1C	–	60	70	–	inactive	inactive	–	inactive	inactive	–	–
